For 36 molecules, IC50 results are on record in patent US9765018B2, “IDO inhibitors” (BRISTOL-MYERS SQUIBB COMPANY, priority 2013, dated 2017).

Assay [1] concerns the target T1, IDO (Homo sapiens (Human), UniProt P14902). The assay can be described thus: LLE_IDO_ABS_DR (IDO assay, method not described).
Assay [2] has as its target T1, IDO. Description: Kynurenine assay in IFN-γ-stimulated Hela cells. Format: cell-based. The note with it: 20 h, read-out: Hela Kyurenine (IC50). Put shortly: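 Hela cells adhered 5-6 h, then received inhibitor (top dose 30 μM, 3-fold dilutions to 1.5 nM) plus 100 ng/mL human IFN-γ to induce IDO, 20 h at 37° C. TCA added, 30 min at 50° C hydrolyses N-formylkynurenine to kynurenine. Supernatant mixed with Ehrlich reagent, 10 min RT, absorbance 490 nm.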

The structures appear in SMILES notation.

T1 sequence (P14902 whole entry): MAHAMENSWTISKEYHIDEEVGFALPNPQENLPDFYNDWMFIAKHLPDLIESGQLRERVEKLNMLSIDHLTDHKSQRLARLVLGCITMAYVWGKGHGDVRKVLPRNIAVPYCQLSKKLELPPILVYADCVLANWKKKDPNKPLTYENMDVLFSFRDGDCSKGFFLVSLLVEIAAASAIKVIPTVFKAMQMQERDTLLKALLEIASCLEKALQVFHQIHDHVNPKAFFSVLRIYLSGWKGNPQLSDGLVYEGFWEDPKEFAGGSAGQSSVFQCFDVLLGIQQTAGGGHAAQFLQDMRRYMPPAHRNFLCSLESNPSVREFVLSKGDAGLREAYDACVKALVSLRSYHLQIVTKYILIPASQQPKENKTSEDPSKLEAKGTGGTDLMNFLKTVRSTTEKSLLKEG

In the case of `COc1ccc(-c2ccc(O[C@@H]3CCCC[C@H]3C)c(NC(=O)Nc3ccccc3Cl)c2)cc1C(=O)O` (relative stereo) [Example 132, 3′-(3-(2-chlorophenyl)ureido)-4-methoxy-4′-((trans)-2-methylcyclohexyloxy)biphenyl-3-carboxylic acid], the results for the IC50 on IDO [1] and on IDO [2] were 1460 nM and 990 nM, respectively.

`COc1ccc(-c2ccc(O[C@@H]3CCCC[C@H]3C)c(NC(=O)Nc3cccc(C)c3)c2)cc1C(=O)O` (relative stereo) [Example 138, 4-methoxy-4′-((trans)-2-methylcyclohexyloxy)-3′-(3-m-tolylureido)biphenyl-3-carboxylic acid]: the IC50 is 2340 nM against IDO [1] and 390 nM at IDO [2].

As to `COc1ccc(-c2cnc(Oc3cccc4c3CCCC4)c(NC(=O)Nc3ccccc3Cl)c2C)cc1C(=O)O` [Example 3, 5-(5-(3-(2-Chlorophenyl)ureido)-4-methyl-6-(5,6,7,8-tetrahydronaphthalen-1-yloxy)pyridin-3-yl)-2-methoxybenzoic acid], the results for the half-maximal inhibitory concentration (IC50) on IDO [1] and at IDO [2] were 4810 nM and 3380 nM, respectively.

For the molecule `COc1ccc(-c2ccc(Oc3ccccc3C(C)(C)C)c(NC(=O)Nc3ccc(C(F)(F)F)cc3)c2)cc1C(=O)O` [Example 43, 4′-(2-tert-butylphenoxy)-4-methoxy-3′-(3-(4-(trifluoromethyl)phenyl)ureido)biphenyl-3-carboxylic acid], the IC50 stood at 10000 nM at IDO [1] and 440 nM on IDO [2].

In the case of `COc1ccc(-c2ccc(Oc3ccccc3C(C)(C)C)c(NC(=O)Nc3cccc(C)c3)c2)cc1C(=O)O` [Example 45, 4′-(2-tert-butylphenoxy)-4-methoxy-3′-(3-m-tolylureido)biphenyl-3-carboxylic acid], the IC50 at IDO [1] turned out to be 390 nM; at IDO [2] it was 150 nM.

Consider `COc1ccc(-c2ccc(Oc3ccccc3Cl)c(NC(=O)Nc3ccccc3Cl)c2)cc1C(=O)O` [Example 49, 4′-(2-chlorophenoxy)-3′-(3-(2-chlorophenyl)ureido)-4-methoxybiphenyl-3-carboxylic acid], for which the IC50 on IDO [1] was found to be 2630 nM; on IDO [2], 590 nM.

Regarding `COc1ccc(-c2ccc(Oc3c(C)cccc3C(C)(C)C)c(NC(=O)Nc3ccccc3Cl)c2)cc1C(=O)O` [Example 54, 4′-(2-tert-butyl-6-methylphenoxy)-3′-(3-(2-chlorophenyl)ureido)-4-methoxybiphenyl-3-carboxylic acid], the IC50 on IDO [1] was determined as 2540 nM; at IDO [2], 510 nM.

Consider `CCc1ccccc1Oc1ccc(-c2ccc(OC)c(C(=O)O)c2)cc1NC(=O)Nc1cccc(C)c1` [Example 57, 4′-(2-ethylphenoxy)-4-methoxy-3′-(3-m-tolylureido)biphenyl-3-carboxylic acid], for which the half-inhibitory concentration (IC50) at IDO [1] was found to be 390 nM; at IDO [2], 130 nM.

For `CCc1ccccc1Oc1ccc(-c2ccc(OC)c(C(=O)O)c2)cc1NC(=O)Nc1cccc(Cl)c1` [Example 58, 3′-(3-(3-chlorophenyl)ureido)-4′-(2-ethylphenoxy)-4-methoxybiphenyl-3-carboxylic acid], the IC50 turned out to be 770 nM against IDO [1] and 240 nM at IDO [2].

`COc1ccc(-c2ccc(Oc3c(C)cccc3C(C)(C)C)c(NC(=O)Nc3cccc(C)c3)c2)cc1C(=O)O` [Example 60, 4′-(2-tert-butyl-6-methylphenoxy)-4-methoxy-3′-(3-m-tolylureido)biphenyl-3-carboxylic acid]: the IC50 on IDO [1] was found to be 1150 nM; on IDO [2], 310 nM.

For the molecule `COc1ccc(-c2ccc(Oc3ccccc3C(C)C)c(NC(=O)Nc3ccccc3Cl)c2)cc1C(=O)O` [Example 62, 3′-(3-(2-chlorophenyl)ureido)-4′-(2-isopropylphenoxy)-4-methoxybiphenyl-3-carboxylic acid], the values for the IC50 against IDO [1] and on IDO [2] were 530 nM and 140 nM, respectively.

As for `COc1ccc(-c2ccc(Oc3ccccc3C(C)C)c(NC(=O)Nc3ccccc3C)c2)cc1C(=O)O` [Example 64, 4′-(2-isopropylphenoxy)-4-methoxy-3′-(3-o-tolylureido)biphenyl-3-carboxylic acid], the results for the IC50 on IDO [1] and at IDO [2] were 640 nM and 180 nM, respectively.

As to `COc1ccc(-c2ccc(Oc3ccccc3C(C)C)c(NC(=O)Nc3cccc(C)c3)c2)cc1C(=O)O` [Example 65, 4′-(2-isopropylphenoxy)-4-methoxy-3′-(3-m-tolylureido)biphenyl-3-carboxylic acid], the concentration for half-maximal inhibition (IC50) at IDO [1] is 630 nM; at IDO [2], 200 nM.

In the case of `COc1ccc(-c2ccc(Oc3ccccc3C(C)(C)C)c(NC(=O)Nc3ccc(OC(F)(F)F)cc3)c2)cc1C(=O)O` [Example 66, 4′-(2-tert-butylphenoxy)-4-methoxy-3′-(3-(4-(trifluoromethoxy)phenyl)ureido)biphenyl-3-carboxylic acid], the figures for the half-maximal inhibitory concentration (IC50) against IDO [1] and on IDO [2] were 1590 nM and 820 nM, respectively.

As for `CCCc1ccccc1Oc1ccc(-c2ccc(OC)c(C(=O)O)c2)cc1NC(=O)Nc1ccccc1Cl` [Example 74, 3′-(3-(2-chlorophenyl)ureido)-4-methoxy-4′-(2-propylphenoxy)biphenyl-3-carboxylic acid], the concentration for half-maximal inhibition (IC50) turned out to be 520 nM against IDO [1] and 400 nM on IDO [2].

On to `CCCc1ccccc1Oc1ccc(-c2ccc(OC)c(C(=O)O)c2)cc1NC(=O)Nc1ccccc1C` [Example 75, 4-methoxy-4′-(2-propylphenoxy)-3′-(3-o-tolylureido)biphenyl-3-carboxylic acid], for which the IC50 against IDO [1] turned out to be 550 nM; on IDO [2] it was 370 nM.

Consider `CCCc1ccccc1Oc1ccc(-c2ccc(OC)c(C(=O)O)c2)cc1NC(=O)Nc1cccc(C)c1` [Example 76, 4-methoxy-4′-(2-propylphenoxy)-3′-(3-m-tolylureido)biphenyl-3-carboxylic acid], for which the values for the IC50 on IDO [1] and at IDO [2] were 2040 nM and 600 nM, respectively.

In the case of `COc1ccc(-c2ccc(Oc3ccccc3C(C)(C)C)c(NC(=O)Nc3cccc(Cl)c3Cl)c2)cc1C(=O)O` [Example 81, 4′-(2-(tert-butyl)phenoxy)-3′-(3-(2,3-dichlorophenyl)ureido)-4-methoxy-[1,1′-biphenyl]-3-carboxylic acid], the figures for the half-inhibitory concentration (IC50) against IDO [1] and on IDO [2] were 320 nM and 130 nM, respectively.

Take `COc1ccccc1NC(=O)Nc1cc(-c2ccc(OC)c(C(=O)O)c2)ccc1Oc1ccccc1C(C)(C)C` [Example 83, 4′-(2-(tert-butyl)phenoxy)-4-methoxy-3′-(3-(2-methoxyphenyl)ureido)-[1,1′-biphenyl]-3-carboxylic acid]: the values for the IC50 on IDO [1] and at IDO [2] were 1190 nM and 210 nM, respectively.

On to `COc1ccc(-c2ccc(Oc3ccccc3C(C)(C)C)c(NC(=O)Nc3ccc(C)cc3C)c2)cc1C(=O)O` [Example 94, 4′-(2-(tert-butyl)phenoxy)-3′-(3-(2,4-dimethylphenyl)ureido)-4-methoxy-[1,1′-biphenyl]-3-carboxylic acid], for which the IC50 against IDO [1] was found to be 3060 nM; on IDO [2], 170 nM.

Consider `COc1ccc(-c2ccc(Oc3cccc(C(C)(C)C)c3)c(NC(=O)Nc3ccccc3Cl)c2)cc1C(=O)O` [Example 110, 4′-(3-tert-butylphenoxy)-3′-(3-(2-chlorophenyl)ureido)-4-methoxybiphenyl-3-carboxylic acid], for which the IC50 is 2050 nM against IDO [1] and 130 nM on IDO [2].

As for `COc1ccc(-c2ccc(Oc3cccc(C(C)(C)C)c3)c(NC(=O)Nc3ccccc3C)c2)cc1C(=O)O` [Example 111, 4′-(3-tert-butylphenoxy)-4-methoxy-3′-(3-o-tolylureido)biphenyl-3-carboxylic acid], the half-inhibitory concentration (IC50) at IDO [1] is 430 nM; at IDO [2] it was 180 nM.

At IDO [1], `Cc1ccc(NC(=O)Nc2cc(-c3cc(F)ccc3C(=O)O)ccc2OC(CCC(F)(F)F)c2ccc(Cl)cc2)cc1` (stereo not shown) [Example 311] displayed a half-maximal inhibitory concentration (IC50) of 200 nM.

Regarding `Cc1ccc(NC(=O)Nc2cc(-c3ccccc3-c3nnn[nH]3)ccc2OC(CCC(F)(F)F)c2ccc(Cl)cc2)cc1` (stereo not shown) [Example 312], at IDO [1], it took 80 nM to reach half-maximal inhibition (IC50).

The molecule `O=C(Nc1ccc(Cl)cc1)Nc1cc(-c2ccccc2-c2nnn[nH]2)cc(CC2CC2)c1OCCC(F)(F)F` [Example 314, 1-(4-chlorophenyl)-3-(5-(cyclopropylmethyl)-2′-(1H-tetrazol-5-yl)-4-(3,3,3-trifluoropropoxy)-[1,1′-biphenyl]-3-yl)urea] gave an IC50 on IDO [1] of 2360 nM.

On to `Cc1cccc(NC(=O)Nc2cc(-c3ccccc3-c3nnn[nH]3)cc(CC3CC3)c2OCCC(F)(F)F)c1` [Example 315], for which, on IDO [1], the IC50 was found to be 80 nM.

Regarding `Cc1ccc(NC(=O)Nc2cc(-c3ccccc3-c3nnn[nH]3)cc(CC3CC3)c2OCCC(F)(F)F)cc1` [Example 317], at IDO [1], the IC50 stood at 330 nM.

Regarding `O=C(Nc1ccc(F)cc1F)Nc1cc(-c2ccccc2-c2nnn[nH]2)cc(CC2CC2)c1OCCC(F)(F)F` [Example 318], the IC50 on IDO [1] worked out at 320 nM.

Molecule `O=C(Nc1ccc(OC(F)(F)F)cc1)Nc1cc(-c2ccccc2-c2nnn[nH]2)cc(CC2CC2)c1Oc1ccccc1` [Example 320] came in with a half-maximal inhibitory concentration (IC50) at IDO [1] of 220 nM.

Molecule `Cc1ccc(NC(=O)Nc2cc(-c3ccccc3-c3nnn[nH]3)cc(CC3CC3)c2Oc2ccccc2)cc1` [Example 322] gave an IC50 against IDO [1] of 460 nM.

On to `Cc1ccc(NC(=O)Nc2cc(-c3ccccc3-c3nnn[nH]3)cc(CC3CC3)c2OCC2CC2)cc1` [Example 324], for which the half-inhibitory concentration (IC50) at IDO [1] turned out to be 1070 nM.

As to `Cc1cccc(NC(=O)Nc2cc(-c3ccccc3-c3nnn[nH]3)cc(CC3CC3)c2OCC2CC2)c1` [Example 325], half-maximal inhibition at IDO [1] (IC50) was put at 2970 nM.

`Cc1cccc(NC(=O)Nc2cc(-c3ccccc3-c3nnn[nH]3)cc(CC3CC3)c2OC2CCOCC2)c1` [Example 326] had an IC50 on IDO [1] of 130 nM.

For the molecule `O=C(Nc1ccc(Cl)cc1)Nc1cc(-c2ccccc2-c2nnn[nH]2)cc(CC2CC2)c1OCC1CC1` [Example 327], it took 310 nM to reach half-maximal inhibition on IDO [1] (IC50).

At IDO [1], `O=C(Nc1ccc(C2CC2)cc1)Nc1cc(-c2ccccc2-c2nnn[nH]2)cc(CC2CC2)c1OC1CCOCC1` [Example 328] yielded a concentration for half-maximal inhibition (IC50) of 130 nM.

At IDO [1], `O=C(Nc1ccc(F)cc1F)Nc1cc(-c2ccccc2-c2nnn[nH]2)cc(CC2CC2)c1Oc1ccccc1` [Example 329] showed an IC50 of 1660 nM.
